Test results reported in US20210275606A1, “COMPOSITIONS COMPRISING BACTERIAL STRAINS” (4D Pharma Research Limited, priority 2018, published 2021).
Where “and” joins values, the source holds several entries; their conditions need not be identical. Identical values can stand only once. Counter-ions that a name gives are not always drawn.

Key:
[1] = test system: DSS-induced colitis mouse model; assay: DSS-induced colitis mouse model, ileum histology; type: in vivo; design: key to Erosion (epithelial cell damage) / Depletion of goblet cells / Edema / Leucocytes Infiltration: 0: None; Minimal <10%; Mild 10-25%; 3: Moderate 26-50%; 4: Marked >50%; COLITIS SCORING (sum) / COLITIS SCORING mean ± SEM: scale not given here; details: Day 7; for COLITIS SCORING mean ± SEM: group mean, n = 9, 3% DSS; for Depletion of goblet cells / Edema / Erosion (epithelial cell damage) / Leucocytes Infiltration: ileum histology score 0-4, individual mouse; for COLITIS SCORING (sum): sum of the four ileum histology scores, individual mouse
Description: The objective of this study was to determine the prophylactic efficacy of R. intestinalis strain 43043 in a DSS-induced colitis mouse model, upon repeated oral administration.
Tacrolimus was dosed at 1 mg/kg/day
Valproic acid was dosed at 200 mg/kg/day
PBS, YCFA and bacterial cultures were dosed at 200 μL/day
Each of sixty three, 6 week old healthy male C57BL/6J mice were obtained from Charles River (France) and individually identified and labelled with a specific code. Each treatment group (9 animals/group) were housed in three different cages.
Days −7 to Day −1: Treatment with bacteria and reference substances according the treatment table above • Once daily oral administration of PBS, YCF A or Bacteria—200 μL per mouse • Once daily oral administration of Valproic acid at 200 mg/kg/day under a volume of 10 mL/kg From Day O to Day+7: DSS administration • Administration of 3% DSS in the drinking water From Day O to Day+6: Treatment with bacteria and reference substances • Once daily oral administration of PBS, YCFA or Bacteria—200 μL per mouse • Once daily oral administration of Valproic acid—200 mg/kg in sterile distilled water—10 mL/kg • Once daily SC administration of Tacrolimus—1 mg/kg in sterile 1% Tween80, 0.9% NaCl—10 mL/kg Day+7: Sacrifice of all groups and tissue harvesting • Euthanasia of animals was performed under gas anesthesia (Isoflurane) followed by exsanguination and cervical dislocation. Euthanasia methods used are those recommended for mice and rats by European directive 20 I 0/63/CE and the procedure describing euthanasia methods was approved by IACUC. • Laparotomy and ileum harvesting, just upstream of the caecum (from 0.5 cm and on)—all tissue harvested from exactly the same area between all mice: • 1.5 cm swiss-rolled ileum was harvested for histology, the closest to the caecum
Ileum Swiss-rolls specimens were embedded in paraffin and sections of 5 μm thickness were cut and mounted on SuperFrost Ultra plus glass slides. HP (Hematoxylin-Phloxin) staining & AB-PAS (Alcian Blue-Periodic Acid Schiff) staining were performed to visualize histomorphologic changes. A scoring based on edema, erosion, loss of crypts/goblet cells and infiltrates was established on each animal, using the criteria in the following table: […]

HDAC [2] = assay: Global HDAC activity analysis in HT-29 cells; type: cell-based; details: for inhibition of total HDAC activity: whole HT-29 cells and HT-29 cell lysate tested, sentence does not say which
Description: Pure cultures of 43043 bacteria were grown anaerobically in YCFA broth until they reached their stationary growth phase. Cultures were centrifuged at 5,000×g for 5 minutes and the cell-free supernatant (CFS) was filtered using a 0.2 μM filter (Millipore, UK). 1 mL aliquots of the CFS were stored at −80° C. until use. Sodium butyrate, hexanoic and valeric acid were obtained from Sigma Aldrich (UK) and suspensions were prepared in YCFA broth.
(§1) Whole cells and cell free supernatants of stationary phase 43043 cultures were isolated by centrifugation and filtering in a 0.22 uM filter. HT-29 cells were used 3 days' post confluence and stepped down in 1 mL DTS 24 hours prior to commencement of the experiment. The HT-29 cells were challenged with 10% cell free supernatant diluted in DTS and this was left to incubate for 48 hours. […] were then extracted using the Sigma Aldrich Nuclease extraction kit and samples were snap frozen prior to HDAC activity measurement. HDAC activity kit was assessed fluorometrically using the Sigma Aldrich (UK) kit.
(§2) To investigate which metabolites were responsible for the strain-induced HDAC inhibition, different concentrations of hexanoic acid, valeric acid and sodium butyrate were measured for their HDAC inhibition on whole HT-29 cells and on HT-29 cell lysate.

HDAC [3] = assay: HDAC inhibition on HT-29 cell lysate; type: biochemical
Description: as §1, §2

[4] = test system: graft versus host disease (GVHD) induced in Balb/C mice; assay: Graft versus host disease (GVHD) induced in Balb/C mice; type: in vivo, mouse; details: for mean body weight over the course of the study: compared with Group 4 (PBS, TBI + allogeneic transfer), daily dosing Days -14 to 30
Excerpt: Male Balb/C mice (BALB/cAnNCrl; 6-8 weeks old; n=125) with an average starting body weight (±SEM) of 20.67±0.11 g were obtained from Charles River Laboratories (Wilmington, Mass.). An additional n=75 male C57Bl/6 (C57Bl/6NCrl; 6-8 weeks old) were obtained from the same vendor. Animals were acclimatized prior to study commencement. During this period, the animals were observed daily in order to reject any that presented in poor condition.
Animals were randomized into 5 groups at the start of the study. Each group comprised between 8 and 12 mice. Each group was further sub-divided into cohorts A and B (n=4-6 mice per group per cohort); cohorts had staggered disease timelines.
All animals were weighed and randomized by weight into treatment groups prior to study start. Prior to GVHD induction on Days −1 and 0, all animals were pre-treated (P0) with PBS (Groups 1-4), bacterial strain 43043 (Group 5), or Butyrate salt control (Group 6) daily starting on Day −14. Butyrate was used as a positive control as butyrate deficit has been identified in the gut of GVHD patients. Treatments were administered to groups at random, and group treatments were alternated daily to prevent the same groups from being treated at the same time each day. Once test article dosing had begun, care was taken to minimize group cross-contamination: gloves were changed by the technician between treatment groups, and were sprayed with 70% isopropyl alcohol between each cage of the same group.
GVHD was induced in n=84 Balb/C mice (Groups 4-10) using a single acute dose of 8 Gy of total body irradiation (TBI) on Day −1. On Day 0, these recipient mice were given an intravenous injection of a combination of T cell depleted bone marrow cells and splenic cells from donor C57Bl/6 mice in PBS. Bone marrow cells were isolated using standard flushing practices, and were T cell depleted using the cell surface T cell antigen CD3, with a CD3-biotin kit (Miltenyi Biotec catalog 130-094-973). Splenocytes were isolated using Miltenyi GentleMACS Dissociators. Animals in Group 1 served as naïve controls and received neither TBI nor cell transfer. […] Animals in Group 3 served as syngeneic adoptive transfer controls; these animals received 8 Gy of TBI on Day −1, and an intravenous injection of a combination of T cell depleted bone marrow cells and splenic cells from donor Balb/C mice in sterile PBS.
Daily test article dosing continued for the duration of the study (Days −14 to 30). Animal survival was recorded daily, as an indication of GVHD severity. […] The GVHD score was assessed by a standard scoring system based on five criteria (Table 21): percentage of weight change, posture (hunching), activity, fur texture, and skin integrity (maximum score=10). […]

Compound	COLITIS SCORING mean ± SEM [1]	Depletion of goblet cells ([1]; 3% DSS)	Edema ([1]; 3% DSS)	Erosion (epithelial cell damage) ([1]; 3% DSS)	Leucocytes Infiltration ([1]; 3% DSS)	COLITIS SCORING (sum) ([1]; 3% DSS)	inhibition of total HDAC activity (HDAC [2])	mean body weight over the course of the study [4]	further results
CCCC(CCC)C(=O)O [Valproic acid, Valproic Acid]	0.67 ± 0.10	0	0	0	2 (Mild 10-25%) (2×) and 1 (Minimal <10%) (2×) and 0 (5×)	2 (2×) and 1 (2×) and 0 (5×)	–	–	–
CCCCC(=O)O [Valeric acid, valeric acid]	–	–	–	–	–	–	inhibited total HDAC activity	–	–
CCCC(=O)[O-].[Na+] [sodium butyrate, Sodium butyrate]	–	–	–	–	–	–	–	–	inhibition of HDAC activity (HDAC [2]; on whole HT-29 cells): significant (P<0.05) inhibition of HDAC activity; inhibition of HDAC activity (HDAC [3]): significant (P<0.05) inhibition of HDAC activity
CCCC(=O)O [Butyrate salt]	–	–	–	–	–	–	–	No significant differences in mean body weight	Mean colitis severity scores (endoscopy) ([4]; Day 29, as compared to naïve mice (Group 1)): increased; mean GVHD scores ([4]; Days 0 to 30, AUC, compared to Group 3 (syngeneic transfer), with and without scores carried forward): significantly increased mean GVHD scores as compared to Group 3
C=CC[C@@H]1/C=C(\C)C[C@H](C)C[C@H](OC)[C@H]2O[C@@](O)(C(=O)C(=O)N3CCCC[C@H]3C(=O)O[C@H](/C(C)=C/[C@@H]3CC[C@@H](O)[C@H](OC)C3)[C@H](C)[C@@H](O)CC1=O)[C@H](C)C[C@@H]2OC [Tacrolimus]	0.44 ±0.08	0	0	0	0 (6×) and 2 (Mild 10-25%) and 1 (Minimal <10%) (2×)	0 (6×) and 2 and 1 (2×)	–	same trend was observed	leukocyte infiltration in the ileum ([1]; group comparison in text, 3% DSS): reduced leukocyte infiltration comparable to controls
CCCCCC(=O)O [hexanoic acid]	–	–	–	–	–	–	did show significant inhibitory activity	–	–
